Measured values: PMC12455637, “Functionalizing Nisin with a Sugar Moiety Improves Its Solubility and Results in an Altered Antibacterial Spectrum and Mode of Action” (ACS Synthetic Biology, 2025)
In brackets after ≈: the same amount, converted by molar mass. Ends that are not written are not given here.

Key:
[1] = system: Staphylococcus epidermidis; details: ref citation number not printed (Twomey et al. by title); cited from earlier work
Excerpt: Recently, we introduced the Met analog Aha at position 17 and used click chemistry to ...

[2] = system: lipid II; assay: Spot-on-lawn assay of peptide-lipid II complex formation; format: cell-based, Enterococcus faecium; details: lipid II 300 μM, 2 μL spotted at edge of inhibition zone, E. faecium lawn, overnight 37 °C
Description: To assess the interaction between the peptide and lipid II, an overnight culture of E. faecium was added to 0.8% GM17 (w/v) at 45 °C with a final concentration of 0.1% (v/v), and the mixture was then poured into 10 mL plates. The binding of the peptide to lipid II was further examined by spotting purified lipid II (300 μM, 2 μL) at the periphery of the antibiotic inhibition zone. In brief, antimicrobials were applied to the agar plate. Once the antimicrobial solution drops had dried, lipid II was spotted at the edge of the inhibition zone. After the drops had dried, the plates were incubated overnight at 37 °C.

[3] = system: E. faecium; assay: Time-kill assay; format: cell-based, Enterococcus faecium
Description: The antimicrobial effectiveness of nisin, nisin(1–22), and nisin(M21V)–Gal was assessed using a method previously described by Guo et al. , In summary, an overnight culture of E. faecium was diluted 50 times in GM17 medium and cultured at 37 °C. The bacteria were grown until reaching an optical density at 600 nm (OD600) of 0.5, and then the cell concentration was adjusted to 5 × 10^5 colony-forming units per milliliter (CFU/mL). Following this, the bacteria were exposed to a 5-fold MIC of each peptide. An untreated cell suspension was used as a control. At specific time intervals, 50 μL samples were taken, and both undiluted and 10-fold serially diluted suspensions were plated on GM17 agar. The plates were then incubated overnight at 37 °C, and the resulting colonies were counted and expressed as CFU/mL. Each experiment was conducted in triplicate.

[4] = system: S. aureus; assay: Agar well diffusion assay; format: cell-based, Staphylococcus aureus; details: HPLC-purified peptides
Description: (§1) An overnight culture was added at a concentration of 0.1% (v/v) to molten GM17 agar (for E. faecium and E. faecalis) or LB agar (for S. aureus and B. cereus) at 45 °C, and then 30 mL of this mixture was poured onto a plate. After the agar solidified, wells of 8 mm were created by punching in the agar and filled with 30 μL of a 1 mg/mL lantibiotic solution. If needed, lantibiotics were activated by adding 3 μL of 1 mg/mL NisP directly to the well. The quantity of nisin was determined using HPLC as previously outlined. The agar plate was then incubated at 37 °C overnight, and the zones of inhibition were measured. The presented data results from three independent experiments. Zone diameters were measured in millimeters and recorded as the area of the zone (πr ^2) minus the area of the well (πr ^2) in millimeters.

[5] = system: E. faecium; assay: Potassium ion efflux assay (PBFI probe); format: cell-based, Enterococcus faecium; details: various peptide concentrations, up to 32 times MIC; 10 mM HEPES pH 7.2, 0.5% glucose, 10 μM PBFI
Description: To conduct the K^+ release assay, the K^+-specific fluorescent probe PBFI was utilized. E. faecium was cultured in GM17 medium until it reached an OD600 of 0.6, at which point the cells were harvested (5000g, 5 min) and washed twice with 10 mM HEPES (pH 7.2) containing 0.5% glucose. The cells were then suspended in the same buffer supplemented with 10 μM PBFI. Data analysis was carried out using a Varioskan LUX Multimode Microplate Reader (Thermo Fisher Scientific), with cell excitation at 346 nm and fluorescence emission measurement at 505 nm to establish a baseline signal before the introduction of varying concentrations of antibiotics. Nisin was utilized as the positive control in this study.

[6] = system: E. faecium; format: cell-based, Enterococcus faecium; details: agar well diffusion, 30 μL of 1 mg/mL
Description: 2 Production of single-Met containing nisin and nisin variants labeled with Met, Hpg or Hpg–Glc and their antibacterial activity against E. faecium strain. (a) Quantification of fully modified nisin variants labeled with Met or Hpg using HPLC as per Schmitt et al. (b) Evaluation of the antimicrobial efficacy of nisin and its variants against E. faecium through agar well diffusion assay. Each trial was repeated 3 times. The relative activity was determined by measuring inhibition zone diameters in millimeters, calculated as the area of the zone (πr ^2) minus the area of the well (πr ^2) in millimeters.
as §1

[7] = system: B. cereus; assay: Agar well diffusion assay; format: cell-based, Bacillus cereus; details: HPLC-purified peptides
Description: as §1

[8] = system: E. faecium cells; assay: Membrane potential, DiSC3(5) probe; format: cell-based, Enterococcus faecium; details: different concentrations, 2 μM DiSC3(5), monitored 25 min, three replicates
Description: To assess the membrane potential, the membrane potential-sensitive fluorescent dye DiSC3(5) was employed. E. faecium was grown to an OD600 of 0.8, then centrifuged at 5000g for 5 min and washed twice in 10 mM HEPES with 10 mM glucose (pH 7.2). The cell density was adjusted to an OD600 of 0.2 and loaded with 2 μM DiSC3(5) dye, followed by a 20 min incubation in darkness to stabilize the probe fluorescence. Subsequently, the cell suspension was transferred to a 96-well microplate and incubated for 5 min with 100 mM KCl. Antibiotics were then introduced at a varied concentration, and the fluorescence was monitored for 25 min. The excitation and emission wavelengths on the fluorescence spectrometer were set to 622 and 670 nm, respectively. Three replicates were conducted, and a representative example is presented.

[9] = system: Enterococcus faecalis; assay: Agar well diffusion assay; format: cell-based; details: HPLC-purified peptides
Description: as §1

[10] = system: Staphylococcus aureus LMG15975 (MRSA); format: cell-based; details: broth microdilution, inoculum ~5 × 10^5 CFU/mL, overnight 37 °C, HPLC-purified peptides
Description: (§2) The minimal inhibitory concentration (MIC) values were assessed through broth microdilution following standard guidelines. The inoculum was adjusted to around 5 × 10^5 CFU/mL. MIC was characterized as the lowest concentration of the antimicrobial substance at which no visible growth was observed following overnight incubation at 37 °C.

[11] = system: Enterococcus faecium LMG16003 (VRE); format: cell-based; details: broth microdilution, inoculum ~5 × 10^5 CFU/mL, overnight 37 °C, HPLC-purified peptides
Description: as §2

[12] = Solubility at neutral pH; format: physicochemical
Description: Highest solubility at pH 7 was obtained for nisin Z mutant M31K (7–8 mg/mL). The covalent modification of a therapeutic peptide or protein with sugar units is an established strategy to enhance drug solubility and bioavailability. The N-terminal segment of nisin contains a relatively high proportion of hydrophobic residues, while the C-terminal portion is more hydrophilic, featuring positively charged lysine and histidine side chains (Figure e). Attaching a hydrophilic sugar moiety to the C-terminal region of nisin therefore may not substantially alter its amphiphilic nature. To assess the solubility of nisin and its new variants at neutral pH, wild-type nisin or nisin(M21V)–Gal were added to a 50 mM PBS buffer solution (pH 7.2) at room temperature until precipitation occurred (Figure S7a). After equilibration, the concentration of dissolved nisin in the saturated solution was determined using high-performance liquid chromatography (HPLC).
Wild-type nisin (product code: 0305, Handary, Belgium) or nisin(M21V)–Gal was added to a 50 mM PBS buffer solution until precipitation occurred. Equilibrium was established by continuous shaking for 30 min, followed by centrifugation for 3 min at 15,000g. The concentration of the saturated nisin solution was determined using HPLC. […]

| Molecule | influence of M17 mutation on antimicrobial activity [1] | effect of externally added purified lipid II on antimicrobial activity / lipid II binding [2] | bacteriostatic or bactericidal nature ([3]; 5-fold MIC against E. faecium) | reduction in bacterial population ([3]; 5-fold MIC, after 3 h of incubation, start 5 × 10^5 CFU/mL, triplicate) | activity compared to wild-type nisin or Hpg-labeled nisin(M21V) [4] | potassium ion release (PBFI fluorescence) [5] | antibacterial activity in words [6] | activity compared to wild-type nisin or Hpg-labeled nisin(M21V) [7] | membrane depolarization (DiSC3(5) fluorescence) [8] | activity compared to wild-type nisin or Hpg-labeled nisin(M21V) [9] | MIC [10] | MIC [11] | solubility thermodynamic at 30 min ([12]; aqueous buffer, thermodynamic from solid, thermodynamic, solid added until precipitation, 50 mM PBS pH 7.2, room temperature, shaking 30 min, centrifugation 3 min 15,000g, HPLC at 226 nm against nisin standard curve, repeated 3 times) | solubility, times higher compared to wild-type nisin ([12]; neutral pH, 50 mM PBS pH 7.2, room temperature) |
| --- | --- | --- | --- | --- | --- | --- | --- | --- | --- | --- | --- | --- | --- | --- |
| M17Q: literature nisin mutant with M17Q mutation (ITSISLCTPGCKTGALQGCNMKTATCHCSIHVSK; cysteine pairing not given here; also: lantibiotic nisin-A; UniProt P13068 24-57, looked up, variant M17Q) | enhanced effectiveness | – | – | – | – | – | – | – | – | – | – | – | – | – |
| C=C(NC(=O)[C@@H](NC(=O)[C@H](Cc1c[nH]cn1)NC(=O)[C@@H](NC(=O)[C@H](CO)NC(=O)[C@@H]1CS[C@@H](C)[C@H]2NC(=O)[C@H](C)NC(=O)[C@H](NC(=O)[C@H](CCCCN)NC(=O)[C@@H](NC(=O)[C@H](CC(N)=O)NC(=O)[C@@H]3CS[C@@H](C)[C@@H](NC(=O)[C@H](CCCCN)NC(=O)[C@@H]4CS[C@@H](C)[C@@H](NC(=O)[C@@H]5CSC[C@@H](NC(=O)/C(=C/C)NC(=O)[C@@H](N)[C@@H](C)CC)C(=O)N[C@@H]([C@@H](C)CC)C(=O)NC(=C)C(=O)N[C@@H](CC(C)C)C(=O)N5)C(=O)N5CCC[C@H]5C(=O)NCC(=O)N4)C(=O)NCC(=O)N[C@@H](C)C(=O)N[C@@H](CC(C)C)C(=O)N[C@@H](CCc4cn(C[C@H]5OC(O)[C@H](O)[C@@H](O)[C@H]5O)nn4)C(=O)NCC(=O)N3)C(C)C)[C@H](C)SC[C@H](NC2=O)C(=O)N[C@@H](Cc2c[nH]cn2)C(=O)N1)[C@@H](C)CC)C(C)C)C(=O)N[C@@H](CCCCN)C(=O)O (some centres unmarked) [nisin(M21V)–Gal] | – | maintained its capacity to bind to lipid II | bactericidal activity | thousand-fold | reduced activity | did not demonstrate this effect | retained high potency | reduced activity | lost the ability to induce membrane depolarization | significantly lower activity | 15.19 µg/mL (≈ 4.33 µM) | 3.8 µg/mL (≈ 1.08 µM) | 8600 µg/mL (≈ 2450 µM) | 3.9 times |
